Laboratory results taken from patent US20100210567A1, “USE OF A TUFTSIN AS A THERAPEUTIC AGENT” (priority 2007, published 2010).
Residues, ends and D or L forms follow the SMILES beside them.

Tests used:
in vitro [1] = type: cell-based; details: human, MRC-5 cells
Pseudomonas aeruginosa = type: cell-based; details: 5 micrograms per ml
Streptococcus pneumoniae = type: cell-based; details: 5 micrograms per ml
MRSA = details: 5 micrograms per ml
in vitro [2] = details: human, CEM-SS cells
in vitro [3] = details: human
Description: HepG2-2.2.15 is a stable cell line containing the hepatitis B virus (HBV) ayw strain genome (ATCC Cat. No. CRL-11997). […] After 16-24 hours the confluent monolayer of HepG2-2.2.15 cells was washed and the medium was replaced with complete medium containing test peptide—10 micrograms per ml—in duplicate. […] Three days later the culture medium was replaced with fresh medium containing the peptide. Six days following the initial administration of the peptide, the cell culture supernatants was collected, treated with pronase and DNAse and then used in a real-time quantitative TaqMan PCR assay. The PCR-amplified HBV DNA was detected in real-time by monitoring increases in fluorescence signals that result from the exonucleolytic degradation of a quenched fluorescence probe molecule that hybridizes to the amplified HBV DNA. For each PCR amplification, a standard curve was simultaneously generated using dilutions of purified HBV DNA. Antiviral activity was calculated from the reduction in HBV DNA levels (% virus control). A novel dye uptake assay was then employed to measure cell viability, which is used to calculate toxicity (% cell control).

C[C@@H](O)[C@H](N)C(=O)N[C@@H](CCCCN)C(=O)N1CCC[C@H]1C(=O)N[C@@H](CCCNC(=N)N)C(=O)O [Tuftsin, Thr-Lys-Pro-Arg-OH] (H-TKPR-OH)
viability at 144 h (in vitro [1]): 100%
% inhibition (Pseudomonas aeruginosa): 0.0%
% inhibition (Streptococcus pneumoniae): 0.0%
% inhibition (MRSA): 0.0%
viability at 10 micrograms per ml (in vitro [2]): 100%
viability at 144 h, 10 micrograms per ml (in vitro [3]): 100%
